The source made the active and inactive calls. The rule behind the calls is not given here.
Legend:
KB [1] = assay: Cell cycle arrest in human KB cells assessed as accumulation at S phase at 5 uM after 96 hrs by propidium iodide staining based flow cytometry (reference value: 35.66%); type: functional
KB [2] = assay: Cell cycle arrest in human KB cells assessed as accumulation at G1 phase at 5 uM after 96 hrs by propidium iodide staining based flow cytometry (reference value: 54.75%); type: functional
KB [3] = assay: Cell cycle arrest in human KB cells assessed as accumulation at G2 phase at 5 uM after 96 hrs by propidium iodide staining based flow cytometry (reference value: 9.59%); type: functional
SW-620 = assay: Antiproliferative activity against human SW620 cells in folate free medium after 72 hrs in presence of leucovorin by MTT assay; type: functional, cell-based; conditions: SW-620, 72 h
[4] = biological target: T1, Thymidylate synthase/AICAR transformylase (Homo sapiens) (UniProt P04818+P31939); assay: Inhibition of TS/AICARFTase in human KB cells assessed as reduction in cell proliferation up to 1 uM after 72 hrs in presence of excess of thymidine and AICA by MTT assay; type: cell-based
T1 sequence (P04818 whole entry, looked up): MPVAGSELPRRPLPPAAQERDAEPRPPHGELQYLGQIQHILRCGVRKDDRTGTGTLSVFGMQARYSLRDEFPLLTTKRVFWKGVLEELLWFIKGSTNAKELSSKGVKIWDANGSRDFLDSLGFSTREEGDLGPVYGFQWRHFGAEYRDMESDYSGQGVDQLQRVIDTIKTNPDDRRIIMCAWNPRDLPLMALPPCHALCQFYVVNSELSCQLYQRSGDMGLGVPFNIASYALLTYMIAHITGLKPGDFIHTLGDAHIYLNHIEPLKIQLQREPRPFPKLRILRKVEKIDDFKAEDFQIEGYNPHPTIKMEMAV
T1 sequence (P31939 whole entry, looked up): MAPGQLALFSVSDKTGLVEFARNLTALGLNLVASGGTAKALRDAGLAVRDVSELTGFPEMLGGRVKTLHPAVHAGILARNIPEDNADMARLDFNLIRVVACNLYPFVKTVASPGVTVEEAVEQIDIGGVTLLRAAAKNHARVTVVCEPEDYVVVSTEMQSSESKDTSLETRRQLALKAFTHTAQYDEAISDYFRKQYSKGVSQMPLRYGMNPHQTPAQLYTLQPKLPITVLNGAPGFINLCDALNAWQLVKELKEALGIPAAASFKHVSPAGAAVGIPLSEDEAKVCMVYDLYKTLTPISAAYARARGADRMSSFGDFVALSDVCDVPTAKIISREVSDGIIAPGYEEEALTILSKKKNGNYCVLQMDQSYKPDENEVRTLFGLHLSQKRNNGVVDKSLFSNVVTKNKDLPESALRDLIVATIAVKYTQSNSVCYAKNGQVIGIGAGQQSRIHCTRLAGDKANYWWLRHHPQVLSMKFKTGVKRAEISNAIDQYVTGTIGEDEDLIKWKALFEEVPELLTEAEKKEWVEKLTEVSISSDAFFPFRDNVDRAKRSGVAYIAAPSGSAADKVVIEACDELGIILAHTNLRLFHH

[5] = biological target: T2, Thymidylate synthase/GAR transformylase/AICAR transformylase (Homo sapiens, UniProt P04818+P31939+P22102); assay: Inhibition of TS/AICARFTase/GARFTase in human KB cells assessed as reduction in cell proliferation in folate free medium after 72 hrs in presence of leucovorin by MTT assay; type: cell-based
T2 sequence (P04818 whole entry, looked up): as the sequence (P04818 whole entry, looked up) above
T2 sequence (P22102 whole entry, looked up): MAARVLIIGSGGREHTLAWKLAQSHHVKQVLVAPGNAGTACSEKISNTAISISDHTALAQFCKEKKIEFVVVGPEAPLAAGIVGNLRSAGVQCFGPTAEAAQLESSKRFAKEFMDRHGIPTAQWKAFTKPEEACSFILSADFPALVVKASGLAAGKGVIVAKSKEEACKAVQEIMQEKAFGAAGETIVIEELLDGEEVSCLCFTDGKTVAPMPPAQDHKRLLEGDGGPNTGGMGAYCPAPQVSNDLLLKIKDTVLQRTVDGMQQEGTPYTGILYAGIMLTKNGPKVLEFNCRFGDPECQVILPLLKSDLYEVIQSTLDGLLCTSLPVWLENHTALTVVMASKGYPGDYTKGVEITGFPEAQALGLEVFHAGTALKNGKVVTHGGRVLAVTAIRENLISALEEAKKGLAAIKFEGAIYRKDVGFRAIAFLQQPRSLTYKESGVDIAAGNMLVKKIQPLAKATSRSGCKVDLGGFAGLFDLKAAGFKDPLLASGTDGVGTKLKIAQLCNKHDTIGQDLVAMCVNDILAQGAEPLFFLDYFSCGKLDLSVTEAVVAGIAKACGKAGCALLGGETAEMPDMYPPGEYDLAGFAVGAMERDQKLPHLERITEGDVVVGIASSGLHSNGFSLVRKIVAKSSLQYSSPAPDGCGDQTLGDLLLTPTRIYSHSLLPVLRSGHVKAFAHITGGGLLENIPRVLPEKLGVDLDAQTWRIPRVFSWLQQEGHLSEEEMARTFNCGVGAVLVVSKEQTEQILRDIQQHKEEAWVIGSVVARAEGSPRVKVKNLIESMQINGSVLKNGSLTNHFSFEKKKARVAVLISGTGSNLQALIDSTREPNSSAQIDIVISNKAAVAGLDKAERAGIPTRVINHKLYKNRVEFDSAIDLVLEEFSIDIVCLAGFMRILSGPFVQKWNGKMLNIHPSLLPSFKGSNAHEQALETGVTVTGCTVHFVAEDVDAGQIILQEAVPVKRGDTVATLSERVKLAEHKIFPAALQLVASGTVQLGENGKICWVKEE
T2 sequence (P31939 whole entry, looked up): as the sequence (P31939 whole entry, looked up) above

[6] = biological target: GAR transformylase/AICAR transformylase (Homo sapiens) (UniProt P31939+P22102); assay: Inhibition of AICARFTase/GARFTase in human KB cells assessed as reduction in cell proliferation up to 1 uM after 72 hrs in presence of excess of adenosine by MTT assay; type: cell-based
Sequence of GAR transformylase/AICAR transformylase (Homo sapiens) (P22102 whole entry, looked up): as the sequence (P22102 whole entry, looked up) above
Sequence of GAR transformylase/AICAR transformylase (Homo sapiens) (P31939 whole entry, looked up): as the sequence (P31939 whole entry, looked up) above

[7] = biological target: T3, Bifunctional purine biosynthesis protein ATIC (Homo sapiens, UniProt P31939); assay: Inhibition of AICARFTase in human KB cells assessed as reduction in cell proliferation up to 1 uM after 72 hrs in presence of excess of AICA by MTT assay; type: cell-based
Target sequence in this assay (P31939 whole entry, looked up): as above

[8] = biological target: T2, Thymidylate synthase/GAR transformylase/AICAR transformylase; assay: Inhibition of TS/AICARFTase/GARFTase in human KB cells assessed as reduction in cell proliferation up to 1 uM after 72 hrs in presence of excess of thymidine and adenosine by MTT assay; type: cell-based
[9] = biological target: Thymidylate synthase (Homo sapiens) (UniProt P04818); assay: Inhibition of thymidylate synthase in human KB cells assessed as reduction in cell proliferation up to 1 uM after 72 hrs in presence of excess of thymidine by MTT assay; type: cell-based
Sequence of Thymidylate synthase (Homo sapiens) (P04818 2-313 limits assumed): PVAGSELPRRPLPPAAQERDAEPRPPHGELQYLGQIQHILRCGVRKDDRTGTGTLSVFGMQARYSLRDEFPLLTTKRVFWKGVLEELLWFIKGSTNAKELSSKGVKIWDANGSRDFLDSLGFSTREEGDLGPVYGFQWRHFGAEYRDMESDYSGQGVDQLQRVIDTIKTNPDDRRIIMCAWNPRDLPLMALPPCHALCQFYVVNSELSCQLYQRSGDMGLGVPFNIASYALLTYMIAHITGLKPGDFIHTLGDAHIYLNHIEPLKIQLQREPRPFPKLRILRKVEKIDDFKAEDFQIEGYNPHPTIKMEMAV

MCF7 = assay: Antiproliferative activity against human MCF7 cells in folate free medium after 72 hrs in presence of leucovorin by MTT assay; type: functional, cell-based; conditions: MCF7, 72 h
KB [10] = assay: Cell cycle arrest in human KB cells assessed as accumulation at G1 phase at 1 uM after 96 hrs by propidium iodide staining based flow cytometry (reference value: 54.75%); type: functional
KB [11] = assay: Induction of apoptosis in human KB cells assessed as late apoptotic cells at 1 uM after 48 hrs by Annexin V-FITC/propidium iodide staining based flow cytometry (reference value: 5.5%); type: functional
KB [12] = assay: Induction of apoptosis in human KB cells assessed as live cells at 1 uM after 48 hrs by Annexin V-FITC/propidium iodide staining based flow cytometry (reference value: 74.6%); type: functional
KB [13] = assay: Potency index, ratio of pemetrexed IC50 to compound IC50 for human KB cells; type: functional
KB [14] = assay: Inhibition of colony formation in human KB cells at 100 nM after 10 to 14 days by methylene blue staining based assay relative to control; type: functional
KB [15] = assay: Induction of apoptosis in human KB cells assessed as early apoptotic cells at 1 uM after 48 hrs by Annexin V-FITC/propidium iodide staining based flow cytometry (reference value: 16.9%); type: functional
KB [16] = assay: Cell cycle arrest in human KB cells assessed as accumulation at G2 phase at 1 uM after 96 hrs by propidium iodide staining based flow cytometry (reference value: 9.59%); type: functional
KB [17] = assay: Cell cycle arrest in human KB cells assessed as accumulation at S phase at 1 uM after 96 hrs by propidium iodide staining based flow cytometry (reference value: 35.66%); type: functional
KB [18] = assay: Induction of apoptosis in human KB cells assessed as necrotic cells at 1 uM after 48 hrs by Annexin V-FITC/propidium iodide staining based flow cytometry (reference value: 3%); type: functional
KB [19] = assay: Potency index, ratio of methotrexate IC50 to compound IC50 for human KB cells; type: functional
[20] = biological target: T1, Thymidylate synthase/AICAR transformylase (Homo sapiens); assay: Inhibition of TS/AICARFTase in human KB cells assessed as reduction in cell proliferation at 1 to 10 nM after 72 hrs in presence of excess of thymidine and AICA by MTT assay; type: cell-based
[21] = biological target: T3, Bifunctional purine biosynthesis protein ATIC; assay: Inhibition of AICARFTase in human KB cells assessed as reduction in cell proliferation at 1 to 10 nM after 72 hrs in presence of excess of AICA by MTT assay; type: cell-based
Target sequence in this assay (P31939 whole entry, looked up): as the sequence (P31939 whole entry, looked up) above

[22] = biological target: T3, Bifunctional purine biosynthesis protein ATIC; assay: Inhibition of recombinant human AICARFTase using AICAR as substrate incubated at 37 degC for 30 mins measured after overnight incubation at 4 degC
Target sequence in this assay (P31939 whole entry): as the sequence (P31939 whole entry, looked up) above

KB [23] = assay: Induction of apoptosis in human KB cells assessed as early apoptotic cells at 10 uM after 48 hrs by Annexin V-FITC/propidium iodide staining based flow cytometry (reference value: 16.9%); type: functional
KB [24] = assay: Induction of apoptosis in human KB cells assessed as late apoptotic cells at 10 uM after 48 hrs by Annexin V-FITC/propidium iodide staining based flow cytometry (reference value: 5.5%); type: functional
KB [25] = assay: Cell cycle arrest in human KB cells assessed as accumulation at S phase at 10 uM after 96 hrs by propidium iodide staining based flow cytometry (reference value: 35.66%); type: functional
KB [26] = assay: Cell cycle arrest in human KB cells assessed as accumulation at G1 phase at 10 uM after 96 hrs by propidium iodide staining based flow cytometry (reference value: 54.75%); type: functional
KB [27] = assay: Cell cycle arrest in human KB cells assessed as accumulation at G2 phase at 10 uM after 96 hrs by propidium iodide staining based flow cytometry (reference value: 9.59%); type: functional
KB [28] = assay: Induction of apoptosis in human KB cells assessed as live cells at 10 uM after 48 hrs by Annexin V-FITC/propidium iodide staining based flow cytometry (reference value: 74.6%); type: functional
KB [29] = assay: Induction of apoptosis in human KB cells assessed as necrotic cells at 10 uM after 48 hrs by Annexin V-FITC/propidium iodide staining based flow cytometry (reference value: 3%); type: functional

With `COc1cc([C@@H]2c3cc4c(cc3[C@@H](O[C@@H]3O[C@@H]5CO[C@@H](C)O[C@H]5[C@H](O)[C@H]3O)[C@H]3COC(=O)[C@H]23)OCO4)cc(OC)c1O` [ETOPOSIDE] the Activity (KB [1]) was 0%, the Activity (KB [2]) was 96.81% and the Activity (KB [3]) was 3.19%.

In the case of `Nc1nc2[nH]c(CC(=O)NCCCCCC(=O)N[C@@H](CCC(=O)O)C(=O)O)cc2c(=O)[nH]1`, the IC50 (SW-620) is reported as 563 nM, the inhibition [4] is reported as “Active” and the IC50 [5] is reported as 1.4 ×10⁻⁴ microM. The inhibition [6] was “inactive”, the inhibition [7] was “Active” and the inhibition [8] was “inactive”. The inhibition [9] was “inactive” and the IC50 (MCF7) was 1080 nM.

In the case of `Nc1nc2[nH]c(CC(=O)NCC(=O)N[C@@H](CCC(=O)O)C(=O)O)cc2c(=O)[nH]1`, the Activity (KB [10]) is reported as 52.6%, the IC50 (SW-620) is reported as 786 nM and the inhibition [4] is reported as “Active”. The IC50 [5] was 7.8 ×10⁻⁵ uM, the inhibition [6] was “inactive” and the inhibition [7] was “Active”. For the same compound, the inhibition [8] was “inactive”, the Activity (KB [11]) was 6.4% and the Activity (KB [12]) was 57.9%. For the same compound, the “Ratio IC50” value (KB [13]) was 1000, the inhibition at 0.1 µM (KB [14]) was greater than 90% and the Activity (KB [15]) was 35.4%. The inhibition [9] was “inactive”, the Activity (KB [16]) was 2.43% and the Activity (KB [17]) was 44.96%. For the same compound, the Activity (KB [18]) was 0.3%, the “Ratio IC50” value (KB [19]) was 140 and the IC50 (MCF7) was 913 nM.

With `CN(Cc1cnc2nc(N)nc(N)c2n1)c1ccc(C(=O)N[C@@H](CCC(=O)O)C(=O)O)cc1` [METHOTREXATE] the IC50 (SW-620) was 22 nM and the IC50 (MCF7) was 97 nM.

With `Nc1nc2[nH]c(CC(=O)NCCCC(=O)N[C@@H](CCC(=O)O)C(=O)O)cc2c(=O)[nH]1` the IC50 (SW-620) was 948 nM, the IC50 [5] was 0.107 µM and the IC50 (MCF7) was 3640 nM.

`Nc1nc2[nH]c(CC(=O)Nc3ccc(C(=O)N[C@@H](CCC(=O)O)C(=O)O)cc3)cc2c(=O)[nH]1` was tested, and the Activity (KB [10]) was 31.38%, the inhibition [20] was “Active” and the IC50 (SW-620) was 977 nM. The IC50 [5] was 7.5 ×10⁻³ microM, the Activity (KB [11]) was 7.1% and the Activity (KB [12]) was 55.4%. It also gave an inhibition at 0.1 µM (KB [14]) greater than 80%, an Activity (KB [15]) of 36.2% and an Activity (KB [16]) of 0%. The Activity (KB [17]) was 68.62%, the inhibition [21] was “Active” and the Activity (KB [18]) was 1.3%. The IC50 (MCF7) was 1130 nM.

`Nc1nc2ccc(S(=O)(=O)Nc3ccc(C(=O)N[C@@H](CCC(=O)O)C(=O)O)cc3)cc2c(=O)[nH]1` gave a Ki [22] of 8 nM.

In the case of `Nc1nc2[nH]c(CC(=O)NCCC(=O)N[C@@H](CCC(=O)O)C(=O)O)cc2c(=O)[nH]1`, the IC50 (SW-620) is reported as 1100 nM, the IC50 [5] is reported as 0.092 µM and the IC50 (MCF7) is reported as 2380 nM.

With `Nc1nc2[nH]cc(CCc3ccc(C(=O)N[C@@H](CCC(=O)O)C(=O)O)cc3)c2c(=O)[nH]1` [PEMETREXED] the Activity (KB [23]) was 67%, the IC50 (SW-620) was 90 nM and the Activity (KB [24]) was 21.8%. It also gave an Activity (KB [25]) of 38.05%, an Activity (KB [26]) of 61.95% and an Activity (KB [27]) of 0%. It also gave an Activity (KB [28]) of 10.2%, an Activity (KB [29]) of 1% and an IC50 (MCF7) of 650 nM.

In the case of `Nc1nc2[nH]c(CC(=O)NCCCCC(=O)N[C@@H](CCC(=O)O)C(=O)O)cc2c(=O)[nH]1`, the IC50 (SW-620) is reported as 1140 nM, the IC50 [5] is reported as 0.043 µM and the IC50 (MCF7) is reported as 3810 nM.

From ChEMBL document CHEMBL4130394, “Novel 6-substituted benzoyl and non-benzoyl straight chain pyrrolo[2,3-d]pyrimidines as potential antitumor agents with multitargeted inhibition of TS, GARFTase and AICARFTase” (Eur J Med Chem, 2017)
